Measurements published in ChEMBL document CHEMBL1139242, “Peptide deformylase inhibitors of Mycobacterium tuberculosis: synthesis, structural investigations, and biological results” (Bioorg Med Chem Lett, 2008).
≈ marks a conversion by molar mass, not a printed value.

How the values were obtained:
Type in all cases: functional
Details in all cases: 336 h
[1] = tested on: Mycobacterium tuberculosis; assay: Antitubercular activity against streptomycin-resistant Mycobacterium tuberculosis after 14 days by turbidimetric assay
[2] = tested on: Mycobacterium tuberculosis; assay: Antitubercular activity against pyrazinamide-resistant Mycobacterium tuberculosis after 14 days by turbidimetric assay
[3] = tested on: Mycobacterium tuberculosis; assay: Antitubercular activity against Beijing W multidrug resistant Mycobacterium tuberculosis after 14 days by turbidimetric assay
[4] = tested on: Mycobacterium tuberculosis; assay: Antitubercular activity against rifampicin-resistant Mycobacterium tuberculosis after 14 days by turbidimetric assay
[5] = tested on: Mycobacterium tuberculosis; assay: Antitubercular activity against isoniazid-resistant Mycobacterium tuberculosis after 14 days by turbidimetric assay

SMILES | MIC [1] [µg/mL] | MIC [2] [µg/mL] | MIC [3] [µg/mL] | MIC [4] [µg/mL] | MIC [5] [µg/mL]
CCCC[C@H](CN(O)C=O)C(=O)N1CCC[C@H]1c1nc2ccccc2[nH]1 | 0.2 (≈ 0.558 µM) | 0.25 (≈ 0.697 µM) | 0.03 (≈ 0.0837 µM) | 0.125 (≈ 0.349 µM) | 0.03 (≈ 0.0837 µM)
CCCC[C@H](CN(O)C=O)C(=O)N1CCC[C@H]1C(=O)Nc1ccccn1 | 0.5 (≈ 1.38 µM) | 0.5 (≈ 1.38 µM) | 0.125 (≈ 0.345 µM) | 0.25 (≈ 0.69 µM) | 0.1 (≈ 0.276 µM)
CCCC[C@H](CN(O)C=O)C(=O)N1CCC[C@H]1c1nc2ccccc2o1 | 0.5 (≈ 1.39 µM) | 0.25 (≈ 0.696 µM) | 0.06 (≈ 0.167 µM) | 0.6 (≈ 1.67 µM) | 0.06 (≈ 0.167 µM)
